# From PubChem BioAssay (NCI)
#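 Interpolation was linear, between the two tested concentrations surrounding the appropriate level; five concentrations were tested over 48 hours in 96-well plates. Definition used: TGI = concentration required for complete inhibition of growth.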
# Tests used:
# Assay in all cases: NCI tumour cell line growth inhibition, 48 h
# [1] = system: HCT-15 colon
# [2] = system: OVCAR-4 ovarian
# [3] = system: MDA-MB-231 breast
# [4] = system: NCI/ADR-RES ovarian
# [5] = system: DU-145 prostate
# [6] = system: SK-MEL-28 melanoma
# [7] = system: SK-OV-3 ovarian
# [8] = system: U251 CNS
# [9] = system: ACHN renal
# [10] = system: T-47D breast
# [11] = system: COLO 205 colon
# [12] = system: SK-MEL-5 melanoma
# [13] = system: SF-295 CNS
# [14] = system: HCT-116 colon
# [15] = system: NCI-H226 lung
# [16] = system: NCI-H23 lung
# [17] = system: HT29 colon
# [18] = system: 786-0 renal
# [19] = system: UACC-257 melanoma
# [20] = system: SK-MEL-2 melanoma
# [21] = system: M14 melanoma
# [22] = system: NCI-H460 lung
# [23] = system: SR leukemia
# [24] = system: HOP-92 NSCLC
# [25] = system: SNB-19 CNS
# [26] = system: SW-620 colon
# [27] = system: MDA-MB-435
# [28] = system: RXF 393 renal
# [29] = system: RPMI-8226 leukemia
# [30] = system: A498 renal
# [31] = system: OVCAR-8 ovarian
# [32] = system: KM12 colon
# [33] = system: OVCAR-3 ovarian
# [34] = system: SN12C renal
# [35] = system: UACC-62 melanoma
# [36] = system: SF-268 CNS
# [37] = system: NCI-H522 lung
# [38] = system: MOLT-4 leukemia
# [39] = system: HCC-2998 colon
# [40] = system: EKVX NSCLC
# [41] = system: MDA-N
# [42] = system: BT-549 breast
# [43] = system: HS 578T breast
# [44] = system: TK-10 renal
# [45] = system: LOX IMVI melanoma
# [46] = system: IGROV1 ovarian
# [47] = system: UO-31 renal
# [48] = system: MCF7 breast
# [49] = system: PC-3 prostate
# [50] = system: HOP-62 NSCLC
# [51] = system: OVCAR-5 ovarian
# [52] = system: MALME-3M melanoma
# [53] = system: SNB-75 CNS
# [54] = system: HL-60(TB) leukemia
# [55] = system: A549 NSCLC
# [56] = system: K-562 leukemia
# [57] = system: CAKI-1 renal
# [58] = system: SF-539 CNS
# [59] = system: CCRF-CEM leukemia
compound,measurement,setting,value
CCOC(=O)c1c2c(n3ccccc13)C(=O)c1ccccc1C2=O,TGI,[1],> 100 µM
same,TGI,[2],> 100 µM
same,TGI,[3],> 100 µM
same,TGI,[4],> 100 µM
same,TGI,[5],> 100 µM
same,TGI,[6],> 100 µM
same,TGI,[7],> 100 µM
same,TGI,[8],> 100 µM
same,TGI,[9],> 100 µM
same,TGI,[10],> 100 µM
same,TGI,[11],> 100 µM
same,TGI,[12],> 100 µM
same,TGI,[13],> 100 µM
same,TGI,[14],> 100 µM
same,TGI,[15],> 100 µM
same,TGI,[16],> 100 µM
same,TGI,[17],> 100 µM
same,TGI,[18],> 100 µM
same,TGI,[19],> 100 µM
same,TGI,[20],> 100 µM
same,TGI,[21],> 100 µM
same,TGI,[22],15.6 µM
same,TGI,[23],> 100 µM
same,TGI,[24],> 100 µM
same,TGI,[25],> 100 µM
same,TGI,[26],> 100 µM
same,TGI,[27],> 100 µM
same,TGI,[28],> 100 µM
same,TGI,[29],> 100 µM
same,TGI,[30],> 100 µM
same,TGI,[31],> 100 µM
same,TGI,[32],> 100 µM
same,TGI,[33],> 100 µM
same,TGI,[34],> 100 µM
same,TGI,[35],> 100 µM
same,TGI,[36],> 100 µM
same,TGI,[37],> 100 µM
same,TGI,[38],> 100 µM
same,TGI,[39],7.59 µM
same,TGI,[40],> 100 µM
same,TGI,[41],> 100 µM
same,TGI,[42],> 100 µM
same,TGI,[43],> 100 µM
same,TGI,[44],> 100 µM
same,TGI,[45],> 100 µM
same,TGI,[46],> 100 µM
same,TGI,[47],> 100 µM
same,TGI,[48],> 100 µM
same,TGI,[49],> 100 µM
same,TGI,[50],> 100 µM
same,TGI,[51],> 100 µM
same,TGI,[52],> 100 µM
same,TGI,[53],74.6 µM
same,TGI,[54],> 100 µM
same,TGI,[55],43.2 µM
same,TGI,[56],> 100 µM
same,TGI,[57],> 100 µM
same,TGI,[58],> 100 µM
O=C(/C=C/c1csc(-c2ccccc2)n1)NCc1ccc(C(=O)NCCc2ccccc2)cc1,TGI,[1],> 100 µM
same,TGI,[2],> 100 µM
same,TGI,[3],55.6 µM
same,TGI,[4],> 100 µM
same,TGI,[5],> 100 µM
same,TGI,[6],> 100 µM
same,TGI,[7],56.2 µM
same,TGI,[8],> 100 µM
same,TGI,[9],> 100 µM
same,TGI,[10],> 100 µM
same,TGI,[11],> 100 µM
same,TGI,[12],> 100 µM
same,TGI,[13],30.9 µM
same,TGI,[14],> 100 µM
same,TGI,[15],90.2 µM
same,TGI,[16],> 100 µM
same,TGI,[17],30.4 µM
same,TGI,[18],32.7 µM
same,TGI,[19],> 100 µM
same,TGI,[20],> 100 µM
same,TGI,[21],> 100 µM
same,TGI,[22],> 100 µM
same,TGI,[23],> 100 µM
same,TGI,[24],36.8 µM
same,TGI,[25],49.1 µM
same,TGI,[26],> 100 µM
same,TGI,[27],> 100 µM
same,TGI,[28],23.4 µM
same,TGI,[29],> 100 µM
same,TGI,[30],64.8 µM
same,TGI,[31],63 µM
same,TGI,[32],> 100 µM
same,TGI,[33],> 100 µM
same,TGI,[34],> 100 µM
same,TGI,[35],> 100 µM
same,TGI,[36],> 100 µM
same,TGI,[37],> 100 µM
same,TGI,[38],> 100 µM
same,TGI,[39],> 100 µM
same,TGI,[40],> 100 µM
same,TGI,[41],> 100 µM
same,TGI,[42],> 100 µM
same,TGI,[43],> 100 µM
same,TGI,[44],38.2 µM
same,TGI,[45],> 100 µM
same,TGI,[46],> 100 µM
same,TGI,[59],> 100 µM
same,TGI,[47],> 100 µM
same,TGI,[48],> 100 µM
same,TGI,[49],> 100 µM
same,TGI,[50],6.86 µM
same,TGI,[51],> 100 µM
same,TGI,[52],> 100 µM
same,TGI,[53],8.31 µM
same,TGI,[55],> 100 µM
same,TGI,[56],> 100 µM
same,TGI,[57],50.3 µM
CC1CNc2ccccc2N=C1NN (stereo unspecified),TGI,[1],> 100 µM
same,TGI,[2],> 100 µM
same,TGI,[3],> 100 µM
same,TGI,[4],> 100 µM
same,TGI,[5],> 100 µM
same,TGI,[6],> 100 µM
same,TGI,[7],> 100 µM
same,TGI,[8],> 100 µM
same,TGI,[9],> 100 µM
same,TGI,[10],> 100 µM
same,TGI,[11],> 100 µM
same,TGI,[12],> 100 µM
same,TGI,[13],> 100 µM
same,TGI,[14],> 100 µM
same,TGI,[15],> 100 µM
same,TGI,[16],> 100 µM
same,TGI,[17],> 100 µM
same,TGI,[18],> 100 µM
same,TGI,[19],> 100 µM
same,TGI,[20],> 100 µM
same,TGI,[21],> 100 µM
same,TGI,[22],> 100 µM
same,TGI,[23],> 100 µM
same,TGI,[25],> 100 µM
same,TGI,[26],> 100 µM
same,TGI,[27],> 100 µM
same,TGI,[28],> 100 µM
same,TGI,[29],> 100 µM
same,TGI,[30],> 100 µM
same,TGI,[31],> 100 µM
same,TGI,[32],> 100 µM
same,TGI,[33],> 100 µM
same,TGI,[34],> 100 µM
same,TGI,[35],> 100 µM
same,TGI,[36],> 100 µM
same,TGI,[37],> 100 µM
same,TGI,[39],> 100 µM
same,TGI,[40],> 100 µM
same,TGI,[41],> 100 µM
same,TGI,[42],> 100 µM
same,TGI,[43],> 100 µM
same,TGI,[44],> 100 µM
same,TGI,[45],> 100 µM
same,TGI,[46],> 100 µM
same,TGI,[59],> 100 µM
same,TGI,[47],> 100 µM
same,TGI,[48],> 100 µM
same,TGI,[49],> 100 µM
same,TGI,[50],> 100 µM
same,TGI,[51],> 100 µM
same,TGI,[52],> 100 µM
same,TGI,[54],> 24.8 µM
same,TGI,[55],> 100 µM
same,TGI,[56],> 100 µM
same,TGI,[57],> 100 µM
same,TGI,[58],> 100 µM
